Assay results taken from patent publication US20190307141A1, “LACTIC ACID BACTERIAL FERMENTATION PROMOTING AGENT” (MEIJI CO., LTD., priority 2016, published 2019).

What was measured:
Assay type in all cases: cell-based
[1] = tested on: Streptococcus thermophilus OLS3059 strain; assay: Fermentation promoting effect in UHT sterilized milk, pH of the fermentation liquid over time; conditions: 43° C.; for fermentation promoting effect (pH of the fermentation liquid over time vs control): test substance 0.05 mmol/kg in UHT sterilized milk, starter 1% (vol/wt); for fermentation promoting effect (pH over time) of mixtures with guanosine in different mixing ratios: adenosine:guanosine 10:0, 7:3, 5:5, 3:7, inosine:guanosine 10:0, 7:3, 5:5, 4:6 (weight ratio), total 0.05 mmol/kg, UHT sterilized milk
Method: (§1) The above test substances were each added to UHT sterilized milk (cow milk sterilized by a UHT method (ultrahigh temperature sterilization method); sterilized at 130° C. for 2 seconds), and warmed to 43° C. […] To the warmed UHT sterilized milk, Streptococcus thermophilus OLS3059 strain (accession number FERM BP-10740) was inoculated as a starter in an inoculation amount of 1% (vol/wt) (corresponding to a bacterial cell concentration of 1 to 2×10^7 cfu/mL), and the fermentation was started at 43° C. As a control, the fermentation using UHT sterilized milk without the above test substances was also carried out. Herein, S. thermophilus OLS3059 strain was cultured using MRS (Difco) at 37° C. for 16 hours for preparation of the bacterial cells to be used in the fermentation below. After culturing using MRS, the bacterial cells were collected by centrifugation (8,000 g for 5 minutes), and then suspended into 0.8% sodium chloride solution. The resulting bacterial cell suspension (bacterial cell concentration of 1 to 2×10^9 cfu/mL) was used as a starter. In the following Examples using S. thermophilus, a S. thermophilus bacterial suspension prepared according to the same method as the present Example was used as a starter, unless otherwise stated.
The pH of the fermentation liquid was measured over time. A decrease in the pH in the lactic acid bacteria culture medium and the fermentation liquid indicates an increase in the amount of lactic acid production associated with the lactic acid bacterial fermentation and is used as an indicator of the progress degree of the lactic acid bacterial fermentation. […]
In this test, a 10 mM solution of each of the test substances (purines) in 0.1N NaOH was added to UHT sterilized milk in an amount such that the concentration of the test substance in the UHT sterilized milk was 0.05 mmol/kg, whereby UHT sterilized milk supplemented with the test substance was prepared. Additionally, as a control, the fermentation using UHT sterilized milk without the test substances (purines) was also carried out.
UHT sterilized milk supplemented with adenine which is a purine base, or a derivative thereof that is adenosine, deoxyadenosine, or adenylic acid (adenosine monophosphate; AMP) added as a test substance, was warmed to 43° C., subsequently S. thermophilus OLS3059 strain was inoculated as a starter in an amount of 1% (vol/wt), and the fermentation was started at 43° C. The pH of the fermentation liquid was measured over time. […]
The fermentation promoting effect on S. thermophilus was examined by the same method as described in Example 2, except that mixtures of adenosine and guanosine in different mixing ratios or mixtures of inosine and guanosine in different mixing ratios were used as test substances.

[2] = tested on: Lactobacillus delbrueckii subsp. bulgaricus OLL1073R-1; assay: Fermentation promoting effect in UHT sterilized milk, pH over time; conditions: adenylic acid 0.05 mmol/kg or 1:1 mixture 0.025% (wt/wt); UHT sterilized milk with 0.2% casein-hydrolyzed peptide, 43° C.
Method: as §1
(§2) The pH of the fermentation liquid was measured over time. A decrease in the pH in the lactic acid bacteria culture medium and the fermentation liquid indicates an increase in the amount of lactic acid production associated with the lactic acid bacterial fermentation and is used as an indicator of the progress degree of the lactic acid bacterial fermentation.
(§3) Starters (bacterial suspensions) were prepared from the respective bacterial strains by the same method as described in Example 1. The starter was inoculated in an inoculation amount of 1% (vol/wt). Except for these points, the fermentation promoting effect was evaluated in the same manner as in Example 1.
(§4) The preparation method and the inoculation amount (%) of the starter are as described in Example 1. Except for these points, the fermentation promoting effect was evaluated in the same manner as in Example 1.

[3] = tested on: Lactobacillus gasseri OLL2716; assay: as above; conditions: adenylic acid 0.05 mmol/kg or 1:1 mixture 0.025% (wt/wt); UHT sterilized milk with 0.2% casein-hydrolyzed peptide, 43° C.
Method: as §1, §2, §3, §4

[4] = tested on: Lactobacillus helveticus OLL1482; assay: as above; conditions: adenylic acid 0.05 mmol/kg or 1:1 mixture 0.025% (wt/wt); UHT sterilized milk with 0.2% casein-hydrolyzed peptide, 43° C.
Method: as §1, §2, §3, §4

[5] = tested on: Lactococcus lactis subsp. lactis OLS3445; assay: as above; conditions: adenylic acid 0.05 mmol/kg or 1:1 mixture 0.025% (wt/wt); UHT sterilized milk with 0.2% casein-hydrolyzed peptide, 43° C.
Method: as §1, §2, §3, §4

[6] = tested on: Leuconostoc lactis OLS5167; assay: as above; conditions: adenylic acid 0.05 mmol/kg or 1:1 mixture 0.025% (wt/wt); UHT sterilized milk with 0.2% casein-hydrolyzed peptide, 43° C.
Method: as §1, §2, §3, §4

[7] = tested on: Lactobacillus acidophilus OLL1836; assay: Fermentation promoting effect in UHT sterilized milk with casein-hydrolyzed peptide, pH over time; conditions: adenylic acid 0.05 mmol/kg or 1:1 mixture 0.025% (wt/wt); UHT sterilized milk with 0.2% casein-hydrolyzed peptide, 43° C.
[8] = tested on: Lactobacillus johnsonii OLL2725; assay: as above; conditions: adenylic acid 0.05 mmol/kg or 1:1 mixture 0.025% (wt/wt); UHT sterilized milk with 0.2% casein-hydrolyzed peptide, 43° C.

Compound	fermentation promoting effect (pH of the fermentation liquid over time vs control) [1]	also measured
Nc1nc2c(ncn2[C@H]2C[C@H](O)[C@@H](CO)O2)c(=O)[nH]1 [deoxyguanosine]	did not exhibit the fermentation promoting effects	
Nc1nc2c(ncn2[C@@H]2O[C@H](CO)[C@@H](O)[C@H]2O)c(=O)[nH]1 [guanosine]	did not exhibit the fermentation promoting effects	fermentation promoting effect (pH over time) of mixtures with guanosine in different mixing ratios [1]: does not exhibit the fermentation promoting effect
Nc1ccn([C@@H]2O[C@H](CO)[C@@H](O)[C@H]2O)c(=O)n1 [cytidine]	did not exhibit the fermentation promoting effects	
Nc1ncnc2c1ncn2[C@@H]1O[C@H](CO)[C@@H](O)[C@H]1O [adenosine]	notable fermentation promoting effects	fermentation promoting effect (pH over time) of mixtures with guanosine in different mixing ratios [1]: exhibit the fermentation promoting effect in a concentration-dependent manner
OC[C@H]1O[C@@H](n2cnc3c(O)ncnc32)C[C@@H]1O [deoxyinosine]	notable fermentation promoting effects	
Nc1nc2nc[nH]c2c(=O)[nH]1 [guanine]	did not exhibit the fermentation promoting effects	
O=c1[nH]cnc2nc[nH]c12 [hypoxanthine]	notable fermentation promoting effects	
O=c1[nH]c(=O)c2[nH]cnc2[nH]1 [xanthine]	did not exhibit the fermentation promoting effects	
O=c1cc[nH]c(=O)[nH]1 [uracil]	did not exhibit the fermentation promoting effects	
O=c1ccn([C@@H]2O[C@H](CO)[C@@H](O)[C@H]2O)c(=O)[nH]1 [uridine]	did not exhibit the fermentation promoting effects	
adenylic acid [AMP]	notable fermentation promoting effects	fermentation promoting effect (pH over time vs control) [2]: shown in all the strains tested; fermentation promoting effect (pH over time vs control) [3]: shown in all the strains tested; fermentation promoting effect (pH over time vs control) [4]: shown in all the strains tested; fermentation promoting effect (pH over time vs control) [5]: shown in all the strains tested; fermentation promoting effect (pH over time vs control) [6]: shown in all the strains tested; fermentation promoting effect (pH over time vs control) [7]: shown in all the strains tested; fermentation promoting effect (pH over time vs control) [8]: shown in all the strains tested
Nc1ncnc2nc[nH]c12 [adenine]	notable fermentation promoting effects	
O=c1[nH]c(=O)c2[nH]c(=O)[nH]c2[nH]1 [uric acid]	did not exhibit the fermentation promoting effects	
Nc1cc[nH]c(=O)n1 [cytosine]	did not exhibit the fermentation promoting effects	
Cc1cn([C@H]2C[C@H](O)[C@@H](CO)O2)c(=O)[nH]c1=O [thymidine]	did not exhibit the fermentation promoting effects	
Cc1c[nH]c(=O)[nH]c1=O [thymine]	did not exhibit the fermentation promoting effects	
OC[C@H]1O[C@@H](n2cnc3c(O)ncnc32)[C@H](O)[C@@H]1O [inosine]	notable fermentation promoting effects	fermentation promoting effect (pH over time) of mixtures with guanosine in different mixing ratios [1]: exhibit the fermentation promoting effect in a concentration-dependent manner
Nc1ncnc2c1ncn2[C@H]1C[C@H](O)[C@@H](CO)O1 [deoxyadenosine]	notable fermentation promoting effects	
